We go through four molecules from the supplement of paper PMC10307832.

One test has as its system EBC-1. The test can be described thus: relative viability (nuclei count vs DMSO), 5 days (fraction); higher = more cells survive. The settings on record: first compound 6.325 µM. The procedure, abridged:
(§1)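 Five library-drug doses in √10 steps were combined with a fixed anchor-drug dose, or a single drug was given alone, by pin tool to lung cancer cell lines in 1536-well plates the day after seeding. Nuclei were stained and counted after 5 days. Relative viability is the nuclei count in treated wells over that in vehicle wells, taken as the median of duplicate plates.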
Take `COCC1(CO)C(=O)C2CCN1CC2` (configuration not stated) [PRIMA-1MET] + C[C@]1(O)C[C@@H](c2nc(-c3ccc4ccc(-c5ccccc5)nc4c3)c3c(N)nccn32)C1 [Linsitinib] (partner 1 µM): the relative viability is 0.9.
The same measure, in the same setting: as for `COCC1(CO)C(=O)C2CCN1CC2` (configuration not stated) [PRIMA-1MET] + CC(C)C[C@H](NC(=O)[C@H](Cc1ccccc1)NC(=O)c1cnccn1)B(O)O [Bortezomib] (partner 0.002 µM), the figure is 0.544.
`COCC1(CO)C(=O)C2CCN1CC2` (configuration not stated) [PRIMA-1MET] + Cc1nc(NC(=O)N2CCC[C@H]2C(N)=O)sc1-c1ccnc(C(C)(C)C(F)(F)F)c1 [Alpelisib] (partner 2 µM) gave a relative viability of 0.757.

The same test, now with this note: first compound 20 µM.
`COCC1(CO)C(=O)C2CCN1CC2` (configuration not stated) [PRIMA-1MET] + CS(=O)(=O)CCNCc1ccc(-c2ccc3ncnc(Nc4ccc(OCc5cccc(F)c5)c(Cl)c4)c3c2)o1 [Lapatinib] (partner 2 µM): the relative viability is 0.201.
Same read-out and setting: with `COCC1(CO)C(=O)C2CCN1CC2` (configuration not stated) [PRIMA-1MET] + C[C@]1(O)C[C@@H](c2nc(-c3ccc4ccc(-c5ccccc5)nc4c3)c3c(N)nccn32)C1 [Linsitinib] (partner 1 µM) the figure was 0.623; with `COCC1(CO)C(=O)C2CCN1CC2` (configuration not stated) [PRIMA-1MET] + CC(C)C[C@H](NC(=O)[C@H](Cc1ccccc1)NC(=O)c1cnccn1)B(O)O [Bortezomib] (partner 0.002 µM), 0.136; with `COCC1(CO)C(=O)C2CCN1CC2` (configuration not stated) [PRIMA-1MET] + Cc1nc(NC(=O)N2CCC[C@H]2C(N)=O)sc1-c1ccnc(C(C)(C)C(F)(F)F)c1 [Alpelisib] (partner 2 µM), 0.666.

For a further test, the system named is COR-L23. The test is described as above. As to conditions: first compound 0.2 µM. The procedure, abridged: as §1
On to `COCC1(CO)C(=O)C2CCN1CC2` (configuration not stated) [PRIMA-1MET] + CS(=O)(=O)CCNCc1ccc(-c2ccc3ncnc(Nc4ccc(OCc5cccc(F)c5)c(Cl)c4)c3c2)o1 [Lapatinib] (partner 2 µM), for which the relative viability worked out at 1.11.
On the same count and under the same terms, as for `COCC1(CO)C(=O)C2CCN1CC2` (configuration not stated) [PRIMA-1MET] + C[C@]1(O)C[C@@H](c2nc(-c3ccc4ccc(-c5ccccc5)nc4c3)c3c(N)nccn32)C1 [Linsitinib] (partner 1 µM), the figure is 0.94.
For the molecule `COCC1(CO)C(=O)C2CCN1CC2` (configuration not stated) [PRIMA-1MET] + CC(C)C[C@H](NC(=O)[C@H](Cc1ccccc1)NC(=O)c1cnccn1)B(O)O [Bortezomib] (partner 0.002 µM), the relative viability worked out at 1.29.
Same read-out and setting: as for `COCC1(CO)C(=O)C2CCN1CC2` (configuration not stated) [PRIMA-1MET] + Cc1nc(NC(=O)N2CCC[C@H]2C(N)=O)sc1-c1ccnc(C(C)(C)C(F)(F)F)c1 [Alpelisib] (partner 2 µM), the figure is 0.783.

The same test, now with this note: first compound 0.6325 µM.
`COCC1(CO)C(=O)C2CCN1CC2` (configuration not stated) [PRIMA-1MET] + CS(=O)(=O)CCNCc1ccc(-c2ccc3ncnc(Nc4ccc(OCc5cccc(F)c5)c(Cl)c4)c3c2)o1 [Lapatinib] (partner 2 µM) came in with a relative viability of 0.922.
Same read-out and setting: with `COCC1(CO)C(=O)C2CCN1CC2` (configuration not stated) [PRIMA-1MET] + C[C@]1(O)C[C@@H](c2nc(-c3ccc4ccc(-c5ccccc5)nc4c3)c3c(N)nccn32)C1 [Linsitinib] (partner 1 µM) the figure was 0.942; with `COCC1(CO)C(=O)C2CCN1CC2` (configuration not stated) [PRIMA-1MET] + CC(C)C[C@H](NC(=O)[C@H](Cc1ccccc1)NC(=O)c1cnccn1)B(O)O [Bortezomib] (partner 0.002 µM), 0.97; with `COCC1(CO)C(=O)C2CCN1CC2` (configuration not stated) [PRIMA-1MET] + Cc1nc(NC(=O)N2CCC[C@H]2C(N)=O)sc1-c1ccnc(C(C)(C)C(F)(F)F)c1 [Alpelisib] (partner 2 µM), 0.699.

The same test, now with this note: first compound 2 µM.
Consider `COCC1(CO)C(=O)C2CCN1CC2` (configuration not stated) [PRIMA-1MET] + CS(=O)(=O)CCNCc1ccc(-c2ccc3ncnc(Nc4ccc(OCc5cccc(F)c5)c(Cl)c4)c3c2)o1 [Lapatinib] (partner 2 µM), for which the relative viability turned out to be 0.941.
Same read-out and setting: as for `COCC1(CO)C(=O)C2CCN1CC2` (configuration not stated) [PRIMA-1MET] + C[C@]1(O)C[C@@H](c2nc(-c3ccc4ccc(-c5ccccc5)nc4c3)c3c(N)nccn32)C1 [Linsitinib] (partner 1 µM), the figure is 0.978.
The same measure, in the same setting: as for `COCC1(CO)C(=O)C2CCN1CC2` (configuration not stated) [PRIMA-1MET] + CC(C)C[C@H](NC(=O)[C@H](Cc1ccccc1)NC(=O)c1cnccn1)B(O)O [Bortezomib] (partner 0.002 µM), the figure is 0.954; as for `COCC1(CO)C(=O)C2CCN1CC2` (configuration not stated) [PRIMA-1MET] + Cc1nc(NC(=O)N2CCC[C@H]2C(N)=O)sc1-c1ccnc(C(C)(C)C(F)(F)F)c1 [Alpelisib] (partner 2 µM), 0.869.

Staying with this test, now noted: first compound 6.325 µM.
Turning to `COCC1(CO)C(=O)C2CCN1CC2` (configuration not stated) [PRIMA-1MET] + CS(=O)(=O)CCNCc1ccc(-c2ccc3ncnc(Nc4ccc(OCc5cccc(F)c5)c(Cl)c4)c3c2)o1 [Lapatinib] (partner 2 µM), the relative viability was 1.17.
Still for that read-out and setting: with `COCC1(CO)C(=O)C2CCN1CC2` (configuration not stated) [PRIMA-1MET] + C[C@]1(O)C[C@@H](c2nc(-c3ccc4ccc(-c5ccccc5)nc4c3)c3c(N)nccn32)C1 [Linsitinib] (partner 1 µM) the figure was 0.873; with `COCC1(CO)C(=O)C2CCN1CC2` (configuration not stated) [PRIMA-1MET] + CC(C)C[C@H](NC(=O)[C@H](Cc1ccccc1)NC(=O)c1cnccn1)B(O)O [Bortezomib] (partner 0.002 µM), 1.05; with `COCC1(CO)C(=O)C2CCN1CC2` (configuration not stated) [PRIMA-1MET] + Cc1nc(NC(=O)N2CCC[C@H]2C(N)=O)sc1-c1ccnc(C(C)(C)C(F)(F)F)c1 [Alpelisib] (partner 2 µM), 0.726.

The same test, now with this note: first compound 20 µM.
`COCC1(CO)C(=O)C2CCN1CC2` (configuration not stated) [PRIMA-1MET] + CS(=O)(=O)CCNCc1ccc(-c2ccc3ncnc(Nc4ccc(OCc5cccc(F)c5)c(Cl)c4)c3c2)o1 [Lapatinib] (partner 2 µM) displayed a relative viability of 0.0199.
On the same count and under the same terms, as for `COCC1(CO)C(=O)C2CCN1CC2` (configuration not stated) [PRIMA-1MET] + C[C@]1(O)C[C@@H](c2nc(-c3ccc4ccc(-c5ccccc5)nc4c3)c3c(N)nccn32)C1 [Linsitinib] (partner 1 µM), the figure is 0.0228; as for `COCC1(CO)C(=O)C2CCN1CC2` (configuration not stated) [PRIMA-1MET] + CC(C)C[C@H](NC(=O)[C@H](Cc1ccccc1)NC(=O)c1cnccn1)B(O)O [Bortezomib] (partner 0.002 µM), 0.0202.
Same read-out and setting: with `COCC1(CO)C(=O)C2CCN1CC2` (configuration not stated) [PRIMA-1MET] + Cc1nc(NC(=O)N2CCC[C@H]2C(N)=O)sc1-c1ccnc(C(C)(C)C(F)(F)F)c1 [Alpelisib] (partner 2 µM) the figure was 0.0226.
